In series [1] the test system is primary corticalstriatal neuronal co-cultures containing glia. The class given is cell-based. The protocol: FIGS. 6A, 6B, 7A, 7B, 8A, and 8B depict the results of comparative cellular toxicities of the triterpenes to primary corticalstriatal neuronal co-cultures containing glia evaluated according to the example below: ursolic acid (FIGS. 6A, 6B), betulinic acid (FIGS. 7A, 7B) and oleanolic acid (FIGS. 8A, 8B). For FIGS. 6A, 7A and 8A, propidium iodide was added for one hour then the numbers of PI-positive cells were scored under automated high-content analysis on the Cellomics ArrayScan VTI. For FIGS. 6B, 7B and 8B, MTS substrate was added for two hours then co-culture wells were measured for absorbance at 450 nm using a multi-well plate reader.
We determined whether the reduced neuroprotective activity of Compositions I and II might be due to cellular toxicity of one or more of the individual triterpenes. We conducted a direct study of the cellular toxicities of oleanolic acid (OA), ursolic acid (UA), and betulinic acid (BA) using two independent measures of cell death: propidium iodide (PI) staining for nuclear breakdown and the MTS assay for cell metabolic activity. […] The MTS assay is a well-based assay in which cleavage of a tetrazolium reporter by mitochondrial enzymes produces colorimetric readout and reports relative numbers of healthy cells.

In series [2] the test system is ARE target genes (Srx, Hmox1). Description: ARE gene expression qPCR in rat primary corticostriatal co-cultures. The class given is cell-based. The protocol: FIG. 3 (prior art: Van Kanegan: vide supra) depicts the results of ARE gene expression assays for Fraction 0-4 and the individual triterpenes oleanolic acid, ursolic acid, betulinic acid and uvaol (also referred to as uvalol). “X” symbols denote concentrations of compounds which induced toxicity and for which recovery of residual mRNA was insufficient to support qPCR analysis. Rat primary corticostriatal co-cultures were treated for 6 h with Fraction 0-4 (in μg/ml) or oleanolic acid, ursolic acid, betulinic acid, or uvaol (all in μM) at the concentrations indicated, then harvested and processed for qPCR analysis of the ARE target genes shown. Quantitative RNA values were normalized to the GAPDH reference control and fold-expression changes are expressed relative to the DMSO-carrier only condition (“--”) set to a value of 1. Dark bars denote statistically significant differences with respect to the DMSO-carrier only control by a Student's t-test at p<0.05.
FIG. 4 depicts the results of expression assays for Fraction 0-4 and the individual triterpenes ursolic acid and betulinic acid at more closely-spaced concentration ranges. Rat primary corticostriatal co-cultures were treated for 6 h with Fraction 0-4 (in μg/ml) or ursolic acid and betulinic acid (in μM) at the concentrations indicated, then harvested and processed for qPCR analysis of the ARE target genes shown. Quantitative RNA values were normalized to the GAPDH reference control and fold-expression changes are expressed relative to the DMSO-carrier only condition (“--”) set to a value of 1. Dark blue bars denote statistically significant differences with respect to the DMSO-carrier only control by a Student's t-test at p<0.05.
FIGS. 10A and 10B depict the results of comparative Srx (FIG. 10A) and Hmox1 (FIG. 10B) expression assays for PBI-05204, PBI-04711 (also referred to as Fxn 0-4), oleanolic acid (O), ursolic acid (U), betulinic acid (B) and combinations of the triterpenes present at the specified molar ratios. Quantitative RNA values were normalized to the GAPDH reference control and fold-expression changes are shown relative to the DMSO-carrier only condition set to a value of 1. Dark blue bars denote statistically significant differences with respect to the DMSO-carrier only control by a Student's t-test at p<0.05. Striped, red bars denote conditions which induced excessive levels of ARE gene expression, namely, by more than 10-fold.
For qPCR quantification of ARE target gene expression levels, cortical and striatal neurons were plated onto 96-well plates containing mature glial cultures and cultured for 96 h. Composition was added to cultures at the indicated concentrations for 6 h. At the end of the treatment period, cells were lysed and total RNA was isolated using Absolutely RNA mini-prep kits (Agilent Technologies/Stratagene). cDNA was generated using oligo dT primers and Superscript II reverse transcriptase (Invitrogen). Resulting cDNA was used for quantitative PCR of gene transcripts using SYBR Green Real-Time PCR Master Mix (Life Technologies) and the following mouse primers, for: Gcic (forward-5′ […]-3′ (SEQ ID NO. 1) and reverse-5′-[…]-3′) (SEQ ID NO. 2), Ngo1 (forward-5′-GCCCGCATGCAGATCCT-3′ (SEQ ID NO. 3) and reverse 5′-[…]3′) (SEQ ID NO. 4), Srx (forward-5′-[…]-3′ (SEQ ID NO. 5) and reverse-5′-[…]-3′) (SEQ ID NO. 6), and Hmox1 (forward-5′-[…]-3′ (SEQ ID NO. 7) and reverse-5′-[…]-3′) (SEQ ID NO. 8) (Integrated DNA Technologies). […]
For orientation: Real-time PCR tracks product formation cycle by cycle.

The subject of series [3] is ARE target genes (Srx, Hmox1). Particulars: 6 h; prior art FIG. 3; compared among UA, BA, OA; cited from earlier work.
Series [4] has as its system cortical pyramidal neurons. The settings on record: prior art FIG. 5; equimolar basis; cited from earlier work.

Read-outs that look alike come from different tables or passages of the source.

Here are results for three compounds from patent US11331291B2, “Method of and improved composition for treating triterpene-responsive conditions, diseases or disorders” (PHOENIX BIOTECHNOLOGY, INC., priority 2017, dated 2022).

In the case of `C=C(C)[C@@H]1CC[C@]2(C(=O)O)CC[C@]3(C)[C@H](CC[C@@H]4[C@@]5(C)CC[C@H](O)C(C)(C)[C@@H]5CC[C@]43C)[C@@H]12` [BA, betulinic acid], the “concentration leading to 50% loss of metabolic activity” value in series [1] lay in the range of 5 to 15 µM. Further, the cellular toxicity entry in series [2] (even at low concentration) is given as “caused cellular toxicity”.
Turning to `CC1(C)CC[C@]2(C(=O)O)CC[C@]3(C)C(=CC[C@@H]4[C@@]5(C)CC[C@H](O)C(C)(C)[C@@H]5CC[C@]43C)[C@@H]2C1` [OA, oleanolic acid], the “inducing ARE gene expression as single agent” value in series [3] is “relatively inactive”. Moreover, in series [2] (single agent, any concentration tested, FIGS. 10A, 10B), the “ARE gene expression induction” value was “not able to induce appreciable ARE gene expression”. Also, the “neuroprotective activity of individual triterpenes in OGD assay” value in series [4] is listed as “higher activity than UA”.
Regarding `C[C@H]1[C@H](C)CC[C@]2(C(=O)O)CC[C@]3(C)C(=CC[C@@H]4[C@@]5(C)CC[C@H](O)C(C)(C)[C@@H]5CC[C@]43C)[C@H]12` [UA, ursolic acid], the “inducing ARE gene expression as single agent” value in series [3] was “considerably more potent”. In addition, the “concentration leading to 50% loss of metabolic activity” value in series [1] was in the range of 5 to 15 µM. The cellular toxicity result in series [2] is recorded as “caused cellular toxicity”. For the same compound, the “upregulation of Srx and Hmox1” value in series [2] (6 h, closely-spaced concentrations, FIG. 4) was “clear upregulation”. Moreover, in series [2] (single agent at 9 μM, relative to DMSO), the “ARE gene expression induction (Srxn1)” value is recorded as > 10 fold. For the same compound, in series [4], the “neuroprotective activity of individual triterpenes in OGD assay” value is recorded as “variable activity”.
